Results published in patent US5501957A, “Method for measuring glycosyltransferase activity” (priority 1994, dated 1996).
“And” between values parts separate entries of the source, which are not always exact repeats. Identical values can stand only once. “Also recorded” adds a separate entry of the source. Like-named read-outs stand apart in the source and are kept apart here.

Tests used:
[1] = tested on: Ca^++ -dependent protein kinases; settings: cell-free assays; Hidaka et al, 1984; cited from earlier work
core 2 GlcNAc-T [2] = tested on: core 2 GlcNAc-T
CHO cells [3] = test: Proliferation (doubling time) of CHO cells in the presence of differentiation agents; type: cell-based, Chinese hamster
CHO cells [4] = test: Cell morphology of CHO cells; type: cell-based, Chinese hamster
cAMP = type: cell-based, Chinese hamster
bovine β1-4Gal-T = test: Kinetics of the β1-4Gal-T reaction; type: biochemical; settings: 1 mU Gal-T, 5 min at 30° C.
core 2 GlcNAc-T [5] = settings: CHO and MDAY-D2 cell lysates; Yousefi et al (1991); cited from earlier work
core 2 GlcNAc-T [6] = target: T1, core 2 GlcNAc-T (Cricetulus griseus, UniProt A0A9J7GWB2); test: Kinetic analysis of core 2 GlcNAc-T activity in CHO cell lysates; type: biochemical, Chinese hamster; settings: butyrate+cholera toxin-treated versus untreated CHO cells
T1 construct: The lysates were adjusted to 8-12 μg/μl protein with lysis solution and used as the source of transferases; endogenous in cells; host or cells: CHO cells (untreated or treated with differentiating agents), detergent lysate; in A6 freeze-thawed cells, pelleted membranes
T1 sequence (A0A9J7GWB2 1-428): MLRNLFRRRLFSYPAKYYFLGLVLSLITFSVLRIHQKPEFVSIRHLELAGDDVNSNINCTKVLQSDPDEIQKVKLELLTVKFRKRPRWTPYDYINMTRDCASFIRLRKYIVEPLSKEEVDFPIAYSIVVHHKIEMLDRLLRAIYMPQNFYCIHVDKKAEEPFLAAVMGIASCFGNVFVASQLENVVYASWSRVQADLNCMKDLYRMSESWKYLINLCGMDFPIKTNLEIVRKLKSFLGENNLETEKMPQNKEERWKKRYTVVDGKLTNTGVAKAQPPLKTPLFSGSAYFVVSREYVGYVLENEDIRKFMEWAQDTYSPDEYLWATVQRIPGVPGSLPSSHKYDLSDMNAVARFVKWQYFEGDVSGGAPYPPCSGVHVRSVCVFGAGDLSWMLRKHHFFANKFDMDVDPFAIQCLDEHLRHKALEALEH

core 2 GlcNAc-T [7] = test: Substrate Km for core 2 GlcNAc-T found in CHO and MDAY-D2 cell lysates; type: biochemical, Chinese hamster; murine
in vitro = settings: hamster, cho cells
core 2 GlcNAc-T [8] = type: biochemical, Chinese hamster
[9] = tested on: cAMP-dependent protein kinases; settings: cell-free assays; Hidaka et al, 1984; cited from earlier work
[10] = 2 hour incubation, lysates from control or butyrate+cholera toxin-treated cells
[11] = 1 μM actinomycin D, 5 μg/ml cycloheximide, 50 μM kinase inhibitors

In the case of `CC1CNCCN1S(=O)(=O)c1cccc2cnccc12` (centres unmarked) [H-7], the IC50 [1] is listed as 1 to 10 µM and the “effect on induction of core 2 GlcNAc-T activity by butyrate (in words)” value (“effect on induction” for short) (core 2 GlcNAc-T [2]; [11]) is listed as “blocked induction of core 2 GlcNAc-T activity”.

For `CCCCCCCCCCCCCC(=O)O[C@@H]1[C@@H](C)[C@@]2(O)[C@@H](C=C(CO)C[C@]3(O)C(=O)C(C)=C[C@@H]23)[C@@H]2C(C)(C)[C@]12OC(C)=O` [TPA, phorbol 12-myristate 13-acetate], the “effect on core 2 GlcNAc-T activity in CHO cells (in words)” value (from here on “effect … in CHO cells (in words)”) (core 2 GlcNAc-T [2]; listed as PMA) was “Neither cholera toxin alone, retinoic acid, DMSO nor PMA had any effect on core 2 GlcNAc-T activity” and the “Doubling Time” value (CHO cells [3]) was 13 h.

For `C[S+](C)[O-]` [DMSO, dimethylsulfoxide], the “changes in cell morphology (in words)” value (CHO cells [4]) was “changes in cell morphology”, the “changes in cell morphology (in words)” value (CHO cells [4]; listed as dimethylsulfoxide) was “induced changes in cell morphology” and the “B-1 Gal-T activity” value (β1-3Gal-T; 24 h treatment) was 9.1 nmoles/m/h. The “B-1 Gal-T activity” value (β1-3Gal-T; 48 h treatment) was 8.1 nmoles/m/h, the “B-1 Gal-T activity” value (β1-3Gal-T; 72 h treatment) was 5.6 nmoles/m/h and the “Core 2 GlcNAc-T activity” value (core 2 GlcNAc-T [2]; 24 h treatment) was 9.6 pmol/mg/h. The “Core 2 GlcNAc-T activity” value (core 2 GlcNAc-T [2]; 48 h treatment) was 11.2 pmol/mg/h, the “Core 2 GlcNAc-T activity” value (core 2 GlcNAc-T [2]; 72 h treatment) was 9.5 pmol/mg/h and the “Doubling Time” value (CHO cells [3]) was 25 to 27 h. The “effect on cell proliferation (in words)” value (CHO cells [3]) was “reductions in cell growth rates”, the “Doubling Time” value (CHO cells [3]; average slopes of growth curves over 72 hours) was 25 h and the “effect on cell proliferation (in words)” value (CHO cells [3]; listed as dimethylsulfoxide) was “slowed cell proliferation”.

For cholera toxin, the “changes in cell morphology (in words)” value (CHO cells [4]) was “induced changes in cell morphology”, the “additional increase in core 2 GlcNAc-T activity in butyrate-treated cells” value (core 2 GlcNAc-T [2]) was 2 fold and the “effect on core 2 GlcNAc-T activity of butyrate-treated cells (in words)” value (core 2 GlcNAc-T [2]) was “enhanced both cytosolic cAMP concentrations and core 2 GlcNAc-T activity compared to butyrate-treatment alone”. For the same compound, the “enhancement of core 2 GlcNAc-T activity in butyrate-treated cells” value (core 2 GlcNAc-T [2]) was 80%, the “effect on intracellular/cytosolic cAMP levels (in words)” value (cAMP) was “enhanced both cytosolic cAMP concentrations and core 2 GlcNAc-T activity compared to butyrate-treatment alone” and the “effect on cell proliferation (in words)” value (CHO cells [3]) was “reductions in cell growth rates; also recorded: slowed cell proliferation”.

In the case of `NC(N)=NCCNS(=O)(=O)c1cccc2cnccc12` [H-1004], the “effect on induction” value (core 2 GlcNAc-T [2]) is reported as “had no effect”.

With `CC1=C(/C=C/C(C)=C/C=C/C(C)=C/C(=O)O)C(C)(C)CCC1` [RA, all-trans-retinoic acid] the “effect … in CHO cells (in words)” value (core 2 GlcNAc-T [2]) was “had no effect on activity”, the “effect … in CHO cells (in words)” value (core 2 GlcNAc-T [2]; listed as retinoic acid) was “Neither cholera toxin alone, retinoic acid, DMSO nor PMA had any effect on core 2 GlcNAc-T activity” and the “Doubling Time” value (CHO cells [3]) was 13 h.

For `CCCC(=O)Nc1ncnc2c1ncn2[C@@H]1O[C@@H]2COP(=O)(O)O[C@H]2[C@H]1OC(=O)CCC` [dibutyryl cAMP], the “effect … in CHO cells (in words)” value (core 2 GlcNAc-T [2]) was “failed to induce enzyme activity”.

In the case of `Nc1ncnc2c1nc(Br)n2[C@@H]1O[C@@H]2COP(=O)(O)O[C@H]2[C@H]1O` [8-bromo-cAMP], the “effect … in CHO cells (in words)” value (core 2 GlcNAc-T [2]) is reported as “failed to induce enzyme activity”.

Work on `COC(=O)CCCCCCCCO[C@@H]1O[C@H](CO[C@H]2O[C@H](CO)[C@@H](O)[C@H](O)[C@@H]2O[C@@H]2O[C@H](CO)[C@@H](O)[C@H](O)[C@H]2NC(C)=O)[C@@H](O)[C@H](O)[C@@H]1O` [GlcNAcβ1-2Manα1-6Manβ--O--(CH2)8 --COOCH3] yielded a Km (bovine β1-4Gal-T) of 45 µM.

In the case of `CC(=O)N[C@H]1[C@@H](Oc2ccc([N+](=O)[O-])cc2)O[C@H](CO)[C@H](O)[C@@H]1O[C@@H]1O[C@H](CO)[C@H](O)[C@H](O)[C@H]1O` [Galβ1-3GalNAcα-pNp], the Km (core 2 GlcNAc-T [5]) is listed as 300 µM, the “change in Km for the synthetic acceptor (in words)” value (core 2 GlcNAc-T [6]) is listed as “no changes in Km” and the “fold by which substrate Km for β1-4Gal-T is lower than for core 2 GlcNAc-T” value (core 2 GlcNAc-T [7]) is listed as 5 fold.

In the case of `CCCC(=O)[O-].[Na+]` [butyrate, sodium butyrate], the viability at 2000 µM (in vitro) is reported as 90 to 95%, the “changes in cell morphology (in words)” value (CHO cells [4]) is reported as “induced changes in cell morphology” and the “increase in β1-3 Gal-T activity” value (β1-3Gal-T; cho cells, 24 h, 2000 µM) is reported as “approximately 2 fold”. The “increase in β1-3Gal-T activity” value (β1-3Gal-T; cho cells, 24 h, 2000 µM) was 2-3 times, the “core 2 GlcNAc-T activity, kinase +” value (core 2 GlcNAc-T [8]) was 264.9 and the “core 2 GlcNAc-T activity, kinase -” value (core 2 GlcNAc-T [8]) was 267.4. For the same compound, the “effect … in CHO cells (in words)” value (core 2 GlcNAc-T [2]) was “only butyrate induced core 2 GlcNAc-T activity”, the “second peak of core 2 GlcNAc-T activity, higher than the 24 hours peak” value (core 2 GlcNAc-T [2]) was “approximately 45%” and the “time of first peak (maximum) of core 2 GlcNAc-T activity” value (core 2 GlcNAc-T [2]) was 24 h. The “time of second peak of core 2 GlcNAc-T activity” value (core 2 GlcNAc-T [2]) was 84 h, the “core 2 GlcNAc-T activity greater than controls” value (core 2 GlcNAc-T [2]; cho cells, 2000 µM) was 10-20 times and the “fold increase in core 2 GlcNAc-T activity” value (core 2 GlcNAc-T [2]; cho cells, 24 h) was 16 fold. For the same compound, the “delay of core 2 GlcNAc-T peaks after peaks in cytosolic cAMP” value (cAMP) was 8 to 12 h, the “effect on intracellular/cytosolic cAMP levels (in words)” value (cAMP) was “butyrate treatment increases intracellular cAMP levels; also recorded: elevated cytosolic cAMP levels” and the “time by which cAMP elevation preceded induction of core 2 GlcNAc-T activity” value (cAMP) was “approximately 8 h”. The “time of first peak of cAMP” value (cAMP) was 12 h, the “time of second peak of cAMP” value (cAMP) was 72 h and the “Doubling Time” value (CHO cells [3]) was 25 to 27 h and 24 h. The “effect on cell proliferation (in words)” value (CHO cells [3]) was “reductions in cell growth rates; also recorded: slowed cell proliferation”.

For `CNCCNS(=O)(=O)c1cccc2cnccc12` [H-8], the IC50 [9] is given as 1 to 10 µM and the “effect on induction” value (core 2 GlcNAc-T [2]; [11]) is given as “blocked induction of core 2 GlcNAc-T activity”.

In the case of `CC(=O)N[C@H]1[C@@H](OP(=O)(O)OP(=O)(O)OC[C@H]2O[C@@H](n3ccc(=O)[nH]c3=O)[C@H](O)[C@@H]2O)O[C@H](CO)[C@@H](O)[C@@H]1O` [UDP-GlcNAc], the Km (core 2 GlcNAc-T [5]) is given as 500 µM, the “fold by which substrate Km for β1-4Gal-T is lower than for core 2 GlcNAc-T” value (core 2 GlcNAc-T [7]) is given as 7 fold and the UDP-GlcNAc remaining intact [10] is given as 93-95%.
